In the test the target is Lethal factor protease (Bacillus anthracis, UniProt P15917). Put plainly: biochemical. Conditions: LF (FRET) Ki^app.
Sequence of Lethal factor protease (P15917 34-809 limits assumed): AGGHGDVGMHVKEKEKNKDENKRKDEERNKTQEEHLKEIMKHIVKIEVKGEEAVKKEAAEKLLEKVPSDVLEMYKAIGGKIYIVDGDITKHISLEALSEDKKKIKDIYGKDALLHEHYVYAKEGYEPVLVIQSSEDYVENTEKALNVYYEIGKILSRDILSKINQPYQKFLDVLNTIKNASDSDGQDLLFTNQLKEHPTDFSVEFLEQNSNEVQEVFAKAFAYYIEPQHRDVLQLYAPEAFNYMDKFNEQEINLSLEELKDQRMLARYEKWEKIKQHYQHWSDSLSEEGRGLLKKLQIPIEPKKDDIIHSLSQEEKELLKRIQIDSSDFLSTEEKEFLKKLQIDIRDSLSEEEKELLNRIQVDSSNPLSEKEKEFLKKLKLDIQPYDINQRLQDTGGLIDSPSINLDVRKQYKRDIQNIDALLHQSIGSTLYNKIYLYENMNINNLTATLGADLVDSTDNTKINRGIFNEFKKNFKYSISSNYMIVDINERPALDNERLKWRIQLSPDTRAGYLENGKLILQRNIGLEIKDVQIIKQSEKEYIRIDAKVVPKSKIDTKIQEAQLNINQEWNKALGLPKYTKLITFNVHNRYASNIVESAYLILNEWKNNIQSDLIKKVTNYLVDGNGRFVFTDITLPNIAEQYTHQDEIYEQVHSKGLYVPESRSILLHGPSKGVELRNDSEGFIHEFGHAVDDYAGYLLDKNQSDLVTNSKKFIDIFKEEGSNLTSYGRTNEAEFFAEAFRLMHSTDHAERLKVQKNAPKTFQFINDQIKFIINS
`CCCCC(C(=O)NO)[S+]([O-])c1ccc(F)c(C)c1` (single isomer, unassigned) [Compound 167351, syn-2-(4-Fluoro-3-methyl-benzenesulfinyl)-hexanoic acid hydroxyamide] had a Ki of 10300 nM.

On to `CCCCC(C(=O)NO)[S+]([O-])c1ccc(F)c(C)c1` (single isomer, unassigned) [Compound 167352, anti-2-(4-Fluoro-3-methyl-benzenesulfinyl)-hexanoic acid hydroxyamide], for which the Ki came out at 67000 nM.

For `CCCCC(Oc1ccc(F)c(C)c1)C(=O)NO` (stereo not shown) [Compound 167163, 2-(4-Fluoro-3-methyl-phenoxy)-hexanoic acid hydroxyamide], the Ki was 5500 nM.

`Cc1cc(OCC(=O)NO)ccc1F` [Compound 167182, 2-(4-Fluoro-3-methyl-phenoxy)-N-hydroxy-acetamide] registered a Ki of 29200 nM.

In turn, `CCCCC(Sc1ccc(F)c(C)c1)C(=O)NO` (stereo not shown) [Compound 167303, 2-(4-Fluoro-3-methyl-phenylsulfanyl)-hexanoic acid hydroxyamide] showed a Ki of 2500 nM.

As for `CCCCC(C(=O)NO)S(=O)(=O)c1ccc(F)c(C)c1` (stereo not shown) [Compound 167304, 2-(4-Fluoro-3-methyl-benzenesulfonyl)-hexanoic acid hydroxyamide], the Ki turned out to be 30000 nM.

`CCCCC(C(=O)NO)[S+]([O-])c1ccc(F)c(C)c1` (stereo not shown) [Compound 167316, 2-(4-Fluoro-3-methyl-benzenesulfinyl)-hexanoic acid hydroxyamide] gave a Ki of 18000 nM.

Regarding `CCC[C@@H](Oc1ccc(F)c(C)c1)C(=O)NO` [Compound 168090, (R)-2-(4-Fluoro-3-methyl-phenoxy)-pentanoic acid hydroxyamide], the Ki came to 3700 nM.

As for `Cc1cc(O[C@H](CCO)C(=O)NO)ccc1F` [Compound 168093, (R)-2-(4-fluoro-3-methylphenoxy)-N,4-dihydroxybutanamide], the Ki turned out to be 23100 nM.

`Cc1cc(CNCCCC[C@@H](Oc2ccc(F)c(C)c2)C(=O)NO)ccc1F` [Compound 168097, (R)-6-(4-Fluoro-3-methylbenzylamino)-2-(4-fluoro-3-methylphenoxy)-N-hydroxyhexanamide] registered a Ki of 210 nM.

As for `Cc1cc(CNCCCC[C@@H](Oc2cc(C)c(F)c(C)c2)C(=O)NO)ccc1F` [Compound 168100, (R)-2-(4-fluoro-3,5-dimethylphenoxy)-6-(4-fluoro-3-methylbenzylamino)-N-hydroxyhexanamide], the Ki is 580 nM.

`Cc1cc(COCCCC[C@@H](Oc2ccc(F)c(C)c2)C(=O)NO)ccc1F` [Compound 168113, (R)-6-(4-Fluoro-3-methylbenzyloxy)-2-(4-fluoro-3-methylphenoxy)-N-hydroxyhexanamide] returned a Ki of 540 nM.

Take `Cc1cc(OCC(=O)NO)cc(C)c1F` [Compound 168115, 2-(4-Fluoro-3,5-dimethyl-phenoxy)-N-hydroxy-acetamide]: the Ki amounted to 2520 nM.

Turning to `O=C(COc1ccc(F)c(Cl)c1)NO` [Compound 168127, 2-(3-chloro-4-fluorophenoxy)-N-hydroxyacetamide], the Ki worked out at 31200 nM.

Molecule `O=C(COc1ccc(F)cc1)NO` [Compound 168128, 2-(4-fluorophenoxy)-N-hydroxyacetamide] registered a Ki of 61100 nM.

The molecule `O=C(COc1ccc(Cl)cc1)NO` [Compound 168129, 2-(4-chlorophenoxy)-N-hydroxyacetamide] showed a Ki of 83900 nM.

In turn, `O=C(COc1ccc(F)c(F)c1)NO` [Compound 168130, 2-(3,4-difluorophenoxy)-N-hydroxyacetamide] came in with a Ki of 26200 nM.

In the case of `Cc1cc(COCCCC[C@@H](Oc2cc(C)c(F)c(C)c2)C(=O)NO)ccc1F` [Compound 168135, (R)-2-(4-fluoro-3,5-dimethylphenoxy)-6-(4-fluoro-3-methylbenzyloxy)-N-hydroxyhexanamide], the Ki was determined as 3030 nM.

`Cc1cc(CCCN(C)CC[C@@H](Oc2ccc(F)c(C)c2)C(=O)NO)ccc1F` [Compound 168142, (R)-2-(4-fluoro-3-methylphenoxy)-4-((3-(4-fluoro-3-methylphenyl)propyl)(methyl)amino)-N-hydroxybutanamide] yielded a Ki of 1120 nM.

The molecule `Cc1cc(O[C@H](CCN2CCC[C@@H](CN3CCCCC3)C2)C(=O)NO)ccc1F` [Compound 168143, (R)-2-(4-fluoro-3-methylphenoxy)-N-hydroxy-4-((S)-3-(piperidin-1-ylmethyl)piperidin-1-yl)butanamide] showed a Ki of 1670 nM.

The molecule `O=C(NO)[C@@H](C/C=C\COCc1ccccc1)Oc1ccc(F)c(Cl)c1` [Compound 168160, (R,Z)-6-(benzyloxy)-2-(3-chloro-4-fluorophenoxy)-N-hydroxyhex-4-enamide] showed a Ki of 1250 nM.

`Cc1cc(O[C@H](CCCCO)C(=O)NO)ccc1F` [Compound 168176, (R)-2-(4-fluoro-3-methylphenoxy)-N,6-dihydroxyhexanamide] yielded a Ki of 1780 nM.

For `Cc1cc(O[C@H](CCCCNCc2cccs2)C(=O)NO)ccc1F` [Compound 168177, (R)-2-(4-fluoro-3-methylphenoxy)-N-hydroxy-6-(thiophen-2-ylmethylamino)hexanamide], the Ki was found to be 210 nM.

`Cc1cc(O[C@H](CCCCNCc2cccc(-c3ccc(F)cc3)c2)C(=O)NO)ccc1F` [Compound 168178, (R)-2-(4-fluoro-3-methylphenoxy)-6-((4′-fluorobiphenyl-3-yl)methylamino)-N-hydroxyhexanamide] registered a Ki of 130 nM.

As to `Cc1cc(O[C@H](CCCCNCC2CC3CCC2C3)C(=O)NO)ccc1F` (stereo partly shown) [Compound 168183], the Ki came to 170 nM.

Molecule `Cc1cc(O[C@H](CCCCNCc2ccco2)C(=O)NO)ccc1F` [Compound 168184] had a Ki of 750 nM.

`Cc1cc(O[C@H](C/C=C/COCc2ccccc2)C(=O)NO)ccc1F` [Compound 168185] registered a Ki of 770 nM.

The molecule `O=C(NO)[C@@H](CCCCOCc1ccccc1)Oc1ccc(F)c(Cl)c1` [Compound 168187] displayed a Ki of 1070 nM.

The record behind these values is patent publication US7879911B2 (priority 2007, dated 2011).
